{"source": "patent US20110034434A1", "about": "“PRODRUGS OF FUSED HETEROCYCLIC INHIBITORS OF D-AMINO ACID OXIDASE” (SEPRACOR INC., priority 2009, published 2011)", "tested_on": "D-serine", "test": "PK-PD evaluation in rats: D-serine levels in cerebellum after oral dosing", "type": "in vivo", "details": "rat cerebellum, 6 hours after PO dosing, dose normalized to 10 mg/kg of the acid; mean ± spread (n)", "experimental": "Rats (Harlan male Sprague) (N=3) were dosed orally with an amount of test compound, suspended in 45% (w/v) hydroxy-β-cyclodextrin vehicle, dose normalized to 10 mg/kg of the corresponding carboxylic acid. Additional male cannulated rats (N=3) were dosed orally with the parent carboxylic acid, suspended in 45% (w/v) hydroxy-β-cyclodextrin vehicle, at 10 mg/kg. Animals were sacrificed at pre-determined time points (e.g., 0.5, 2 and/or 6 hours post administration) with an N=3 at each time point. At sacrifice, trunk blood was collected into tubes containing potassium EDTA, which were then centrifuged to permit isolation of plasma. The cerebellum was dissected from each animal. Plasma and cerebellum samples were stored at −80° C. until samples were analyzed using a SCIEX API2000 or SCIEX API5000 LC/MS/MS. Samples were analyzed for the amount of corresponding parent acid, D-serine, and/or the amount of test compound.\nConversion of test compounds to 4H-furo[3,2-b]pyrrole-5-carboxylic acid (“acid”; 77) in rats was evaluated according to General Procedure 12. 4H-furo[3,2-b]pyrrole-5-carboxylic acid and D-serine levels in plasma and cerebellum were measured. Animals were sacrificed at 6 hours post administration. In Table 6, “[D-serine] cerebellum” refers to D-serine levels, in nmol/g, in the rat cerebellum. In Table 6, “[acid] cerebellum” refers to the concentration, in μM, of the 4H-furo[3,2-b]pyrrole-5-carboxylic acid in the cerebellum. In Table 6, “[acid] plasma” refers to the concentration, in μM, of the 4H-furo[3,2-b]pyrrole-5-carboxylic acid in the plasma. The row labeled “acid”, denotes the data obtained from dosing 4H-furo[3,2-b]pyrrole-5-carboxylic acid. The row labeled “vehicle” denotes the data obtained from dosing vehicle, and the remaining row in the table denote the data obtained from dosing the test compounds."}
{"smiles": "CCOC(=O)c1cc2occc2n1COCCOC(=O)C(N)C(C)C", "note": "(stereo in doubt) [compound 68, (S)-ethyl 4-((2-(2-amino-3-methylbutanoyloxy)ethoxy)methyl)-4H-furo[3,2-b]pyrrole-5-carboxylate]", "values": [{"measurement": "[D-serine] cerebellum", "result": "5 ± 0.4(3) nmol/g"}]}
{"smiles": "CC1(C)OC(=O)c2cc3occc3n21", "note": "[compound 2, 11,11-dimethyl-5,10-dioxa-1-azatricyclo[6.3.0.0^2,6]undeca-2(6),3,7-trien-9-one]", "values": [{"measurement": "[D-serine] cerebellum", "result": "17 ± 1.0(3) nmol/g"}]}
{"smiles": "CC1OC(=O)c2cc3occc3n21", "note": "(stereo not drawn) [compound 3, 11-methyl-5,10-dioxa-1-azatricyclo[6.3.0.0^2,6]undeca-2(6),3,7-trien-9-one]", "values": [{"measurement": "[D-serine] cerebellum", "result": "17 ± 1.0(3) nmol/g"}]}
{"smiles": "CCCOC(=O)c1cc2occc2[nH]1", "note": "[compound 4, propyl 4H-furo[3,2-b]pyrrole-5-carboxylate]", "values": [{"measurement": "[D-serine] cerebellum", "result": "20 ± 1.3(3) nmol/g"}]}
{"smiles": "CCCCOC(=O)c1cc2occc2[nH]1", "note": "[compound 5, butyl 4H-furo[3,2-b]pyrrole-5-carboxylate]", "values": [{"measurement": "[D-serine] cerebellum", "result": "18 ± 1.2(3) nmol/g"}]}
{"smiles": "CCCCCCCOC(=O)c1cc2occc2[nH]1", "note": "[compound 6, heptyl 4H-furo[3,2-b]pyrrole-5-carboxylate]", "values": [{"measurement": "[D-serine] cerebellum", "result": "18 ± 0.7(3) nmol/g"}]}
{"smiles": "CC(C)COC(=O)c1cc2occc2[nH]1", "note": "[compound 7, isobutyl 4H-furo[3,2-b]pyrrole-5-carboxylate]", "values": [{"measurement": "[D-serine] cerebellum", "result": "19 ± 1.5(3) nmol/g"}]}
{"smiles": "CC(C)CCCOC(=O)c1cc2occc2[nH]1", "note": "[compound 8, 4-methylpentyl 4H-furo[3,2-b]pyrrole-5-carboxylate]", "values": [{"measurement": "[D-serine] cerebellum", "result": "20 ± 1.5(3) nmol/g"}]}
{"smiles": "O=C(OCc1ccccc1)c1cc2occc2[nH]1", "note": "[compound 9, benzyl 4H-furo[3,2-b]pyrrole-5-carboxylate]", "values": [{"measurement": "[D-serine] cerebellum", "result": "21 ± 0.4(3) nmol/g"}]}
{"smiles": "CCN(CC)C(=O)COC(=O)c1cc2occc2[nH]1", "note": "[compound 23, 2-(diethylamino)-2-oxoethyl 4H-furo[3,2-b]pyrrole-5-carboxylate]", "values": [{"measurement": "[D-serine] cerebellum", "result": "18 ± 2.3(3) nmol/g"}]}
{"smiles": "O=C(OCCn1ccnc1)c1cc2occc2[nH]1", "note": "[compound 27, 2-(1H-imidazol-1-yl)ethyl 4H-furo[3,2-b]pyrrole-5-carboxylate]", "values": [{"measurement": "[D-serine] cerebellum", "result": "17 ± 0.6(3) nmol/g"}]}
{"smiles": "O=C(OCn1ccnc1)c1cc2occc2[nH]1", "note": "[compound 28, (1H-imidazol-1-yl)methyl 4H-furo[3,2-b]pyrrole-5-carboxylate]", "values": [{"measurement": "[D-serine] cerebellum", "result": "19 ± 1.9(3) nmol/g"}]}
{"smiles": "CN(C)CCOC(=O)c1cc2occc2[nH]1", "note": "[compound 32, 2-(dimethylamino)ethyl 4H-furo[3,2-b]pyrrole-5-carboxylate]", "values": [{"measurement": "[D-serine] cerebellum", "result": "9 ± 0.7(3) nmol/g"}]}
{"smiles": "CC(=O)OC(C)OC(=O)c1cc2occc2[nH]1", "note": "(stereo not drawn) [compound 33, 1-acetoxyethyl 4H-furo[3,2-b]pyrrole-5-carboxylate]", "values": [{"measurement": "[D-serine] cerebellum", "result": "19 ± 1.4(3) nmol/g"}]}
{"smiles": "CCC(=O)OC(C)OC(=O)c1cc2occc2[nH]1", "note": "(stereo not drawn) [compound 34, 1-(propionyloxy)ethyl 4H-furo[3,2-b]pyrrole-5-carboxylate]", "values": [{"measurement": "[D-serine] cerebellum", "result": "20 ± 1.7(3) nmol/g"}]}
{"smiles": "CC(C)OC(=O)OC(C)OC(=O)c1cc2occc2[nH]1", "note": "(stereo not drawn) [compound 36, 1-(isopropoxycarbonyloxy)ethyl 4H-furo[3,2-b]pyrrole-5-carboxylate]", "values": [{"measurement": "[D-serine] cerebellum", "result": "20 ± 2.9(6) nmol/g"}]}
{"smiles": "CC(OC(=O)OC(C)(C)C)OC(=O)c1cc2occc2[nH]1", "note": "(stereo not drawn) [compound 37, 1-(tert-butoxycarbonyloxy)ethyl 4H-furo[3,2-b]pyrrole-5-carboxylate]", "values": [{"measurement": "[D-serine] cerebellum", "result": "18 ± 1.1(3) nmol/g"}]}
{"smiles": "CC(=O)OCOC(=O)c1cc2occc2[nH]1", "note": "[compound 38, acetoxymethyl 4H-furo[3,2-b]pyrrole-5-carboxylate]", "values": [{"measurement": "[D-serine] cerebellum", "result": "19 ± 4.4(4) nmol/g"}]}
{"smiles": "CC(=O)OC(OC(=O)c1cc2occc2[nH]1)C(C)C", "note": "(stereo not drawn) [compound 40, 1-acetoxy-2-methylpropyl 4H-furo[3,2-b]pyrrole-5-carboxylate]", "values": [{"measurement": "[D-serine] cerebellum", "result": "22 ± 2.7(3) nmol/g"}]}
{"smiles": "O=C(OCOC(=O)c1cc2occc2[nH]1)c1cc2occc2[nH]1", "note": "[compound 41, methylene bis(4H-furo[3,2-b]pyrrole-5-carboxylate)]", "values": [{"measurement": "[D-serine] cerebellum", "result": "14 ± 0.2(3) nmol/g"}]}
{"smiles": "CCC(=O)OCOC(=O)c1cc2occc2[nH]1", "note": "[compound 42, propionyloxymethyl 4H-furo[3,2-b]pyrrole-5-carboxylate]", "values": [{"measurement": "[D-serine] cerebellum", "result": "20 ± 1.5(3) nmol/g"}]}
{"smiles": "CCCC(=O)OC(C)OC(=O)c1cc2occc2[nH]1", "note": "(stereo not drawn) [compound 44, 1-(butyryloxy)ethyl 4H-furo[3,2-b]pyrrole-5-carboxylate]", "values": [{"measurement": "[D-serine] cerebellum", "result": "21 ± 1.3(3) nmol/g"}]}
{"smiles": "CCC(OC(C)=O)OC(=O)c1cc2occc2[nH]1", "note": "(stereo not drawn) [compound 45, 1-acetoxypropyl 4H-furo[3,2-b]pyrrole-5-carboxylate]", "values": [{"measurement": "[D-serine] cerebellum", "result": "22 ± 1.9(3) nmol/g"}]}
{"smiles": "CC(C)C(=O)OCOC(=O)c1cc2occc2[nH]1", "note": "[compound 47, isobutyryloxymethyl 4H-furo[3,2-b]pyrrole-5-carboxylate]", "values": [{"measurement": "[D-serine] cerebellum", "result": "22 ± 3.0(3) nmol/g"}]}
{"smiles": "O=C(OCCOC(=O)c1cc2occc2[nH]1)c1cc2occc2[nH]1", "note": "[compound 55, ethane-1,2-diyl bis(4H-furo[3,2-b]pyrrole-5-carboxylate)]", "values": [{"measurement": "[D-serine] cerebellum", "result": "13 ± 1.1(3) nmol/g"}]}
{"smiles": "NC(=O)c1cc2occc2[nH]1", "note": "[compound 56, 4H-furo[3,2-b]pyrrole-5-carboxamide]", "values": [{"measurement": "[D-serine] cerebellum", "result": "7 ± 0.7(2) nmol/g"}]}
{"smiles": "NC(=O)CNC(=O)c1cc2occc2[nH]1", "note": "[compound 57, N-(2-amino-2-oxoethyl)-4H-furo[3,2-b]pyrrole-5-carboxamide]", "values": [{"measurement": "[D-serine] cerebellum", "result": "5 ± 0.5(3) nmol/g"}]}
{"smiles": "CN1CCN(C(=O)c2cc3occc3[nH]2)CC1", "note": "[compound 58, (4H-furo[3,2-b]pyrrol-5-yl)(4-methylpiperazin-1-yl)methanone]", "values": [{"measurement": "[D-serine] cerebellum", "result": "5 ± 0.3(3) nmol/g"}]}
{"smiles": "CCOC(=O)c1cc2occc2n1COC(=O)c1ccccc1", "note": "[compound 59, ethyl 4-(benzoyloxymethyl)-4H-furo[3,2-b]pyrrole-5-carboxylate]", "values": [{"measurement": "[D-serine] cerebellum", "result": "11 ± 1.9(3) nmol/g"}]}
{"smiles": "O=C(OCn1c(C(=O)O)cc2occc21)c1ccccc1", "note": "[compound 60, 4-(benzoyloxymethyl)-4H-furo[3,2-b]pyrrole-5-carboxylic acid]", "values": [{"measurement": "[D-serine] cerebellum", "result": "13 ± 1.1(3) nmol/g"}]}
{"smiles": "CCOC(=O)c1cc2occc2n1COC(C)=O", "note": "[compound 64, ethyl 4-(acetoxymethyl)-4H-furo[3,2-b]pyrrole-5-carboxylate]", "values": [{"measurement": "[D-serine] cerebellum", "result": "14 ± 3.6(3) nmol/g"}]}
{"smiles": "CCOC(=O)c1cc2occc2n1COC(=O)C(C)C", "note": "[compound 65, ethyl 4-(isobutyryloxymethyl)-4H-furo[3,2-b]pyrrole-5-carboxylate]", "values": [{"measurement": "[D-serine] cerebellum", "result": "11 ± 2.6(3) nmol/g"}]}
{"smiles": "CC(=O)OCn1c(C(=O)O)cc2occc21", "note": "[compound 66, 4-(acetoxymethyl)-4H-furo[3,2-b]pyrrole-5-carboxylic acid]", "values": [{"measurement": "[D-serine] cerebellum", "result": "12 ± 0.7(3) nmol/g"}]}
{"smiles": "CC(C)C(=O)OCn1c(C(=O)O)cc2occc21", "note": "[compound 67, 4-(isobutyryloxymethyl)-4H-furo[3,2-b]pyrrole-5-carboxylic acid]", "values": [{"measurement": "[D-serine] cerebellum", "result": "14 ± 0.9(3) nmol/g"}]}
{"smiles": "CC(=O)OCOC(=O)c1cc2occc2n1COC(C)=O", "note": "[compound 71, acetoxymethyl 4-(acetoxymethyl)-4H-furo[3,2-b]pyrrole-5-carboxylate]", "values": [{"measurement": "[D-serine] cerebellum", "result": "14 ± 0.9(3) nmol/g"}]}
{"smiles": "O=C1OCC(OC(=O)c2cc3occc3[nH]2)O1", "note": "(stereo not drawn) [compound 73, 2-oxo-1,3-dioxolan-4-yl 4H-furo[3,2-b]pyrrole-5-carboxylate]", "values": [{"measurement": "[D-serine] cerebellum", "result": "24 ± 2.0(2) nmol/g"}]}
